{
  "source": "patent US11285130B2",
  "about": "“Treatment of mitochondrial diseases” (Khondrion IP B.V., priority 2017, dated 2022)",
  "key": {"[1]": {"details": "male, human, in vivo", "experimental": "The changes from baseline (pre-dose assessment on Day 1) for body weight, physical examinations, vital signs, ECG-variables and clinical laboratory variables were determined for each time point. Treatment-emergent laboratory and ECG abnormalities as well as adverse events were monitored throughout the study, up to 28 Days after the last study drug intake.\nThe goal of this post-hoc optimization study was to repeat the ECG assessment with an highly automated computer-assisted approach where in addition to the re-evaluation of standard intervals (PR, QRS and QT intervals), a set of parameters describing repolarization morphology were considered. The morphology indices were the TpTe interval (interval from the T wave apex to the end of the T wave), the TpTe/QT index (the ratio between the TpTe interval and the QT interval), Tamp (the amplitude in microvolt units of the T wave) and TSym (an index of repolarization morphology based on the symmetry of the T wave).\nECGs were digitally recorded using a Schiller AT104 ECG machine (500 Hz, 1 μV). Cardiac interval measurements were performed on the Global Superimposed Median Beat (GSMB), a methodology that allows measurements that consider each of the 12 individual median beats. This measurement methodology ensures that the PR, QRS, and QT interval are measured from the earliest onset in any lead to the latest deflection in any lead. Cardiologist overview of the computer-based measurements is based on the superimposed (overlapped) display of the individual median beats, to assure measurements are performed at the earliest onset of any viable lead to the latest offset of any viable lead.\nThe RR interval used for heart-rate correction of the QT interval (QTcB) was based on all the beats in the ten second recording. […]\nFor the pre-dose (baseline) ECGs, all parameters per time point were calculated as the averages of the triplicate ECGs. […]\nThe over-reading cardiologist provided a clinical interpretation for each ECG at each time point. […]"}, "[2]": {"test_system": "primary human fibroblasts from patients with MELAS", "assay": "Oxidative stress-induced cell death (BSO) assay, MELAS patient fibroblasts", "format": "cell-based", "details": "Homo sapiens, Fibroblast; fibroblasts derived from MELAS patients, 100 μM BSO; unit as printed for KH176; read-out: EC50, protection from oxidative stress-induced cell death", "from_the_text": "To determine the effective concentration of the compounds (the concentrations that protect patient cells against oxidative stress-induced cell death) the applicant established an assay using stressed primary human fibroblasts from patients with Leigh syndrome, MELAS or LHON diseases. Utilising the inherent oxidative stress of fibroblasts from patients with mitochondrial disease, their oxidative burden was further increased by depleting cellular glutathione with an inhibitor of glutathione synthesis, L-buthionine-(S,R)-sulfoximine (BSO). […] Cells were seeded at a density of 3000 cells/well in a 96-well format and incubated with increasing concentrations of compounds in combination with BSO (100 μM, Sigma-aldrich). One day after treatment, the cells were washed twice and stained with a solution of 5 μM calcein-AM (Life technologies C3100MP) during 25 min in 199 medium without phenol red (Life technologies, 11043-023) at room temperature. After 2 washes with PBS (Phosphate buffered saline) the plate was read on a fluorescence plate reader (Fluostar Omega, BMG labtech) and the percentage of cell viability determined as a function of fluorescence intensity."}, "[3]": {"assay": "SAD study pharmacokinetic analysis", "format": "in vivo, human", "details": "for AUC(0-t) / Cmax / Tmax / AUC(0-inf) / half-life: male, human, plasma, oral; for AUC(0-t): read-out: AUClast (Geomean); for Cmax: read-out: Cmax (Geomean); for AUC(0-inf): read-out: AUC0-inf (Geomean)", "experimental": "Dose escalation to the next dose level was done after evaluation of the safety and the first 24-hour pharmacokinetic results of the previous dose. […] Anticipated exposures at this starting dose were just below the Minimum Anticipated Biological Effect Level (MABEL). Placebo (an in taste and appearance matching oral liquid) was also administered orally on one occasion in the single-ascending dose part and b.i.d. for 7 Days in the MAD part. […] All samples were stored at <-70° C. until analysis. […] For mean value calculations, all values below the limit of quantification (LOQ) were set to zero. […] The non-compartmental pharmacokinetic analysis was performed using Phoenix, Version 6.3 (Pharsight Corporation, Mountain View, Calif., USA). […] The PK parameters were calculated on the basis of the actual blood sampling time points relative to dosing. Selected pharmacokinetic parameters (Cmax, tmax, t1/2, AUClast and AUC0-int) following single-dose administration and selected pharmacokinetic parameters Cmax, tmax, [NT], the accumulation factor (Racc) and time to reach steady state) following multiple dose administration were determined. In urine, the percentage of dose excreted in urine was determined for the single- and multiple-dose administration."}, "[4]": {"details": "10 mg, SAD, KH176 10 mg, fasted"}, "[5]": {"details": "30 mg, SAD, KH176 30 mg, fasted"}, "[6]": {"details": "100 mg, SAD, KH176 100 mg, fasted"}, "[7]": {"details": "300 mg, SAD, KH176 300 mg, fasted"}, "[8]": {"details": "800 mg, SAD, KH176 800 mg, fasted"}, "[9]": {"details": "2000 mg, SAD, KH176 2000 mg, fasted"}},
  "note": "Like-named read-outs stand apart in the source and are kept apart here.",
  "data": [
    {"compound": "Cc1c(C)c2c(c(C)c1O)CC[C@@](C)(C(=O)N[C@@H]1CCCNC1)O2.Cl", "note": "[KH176, (S)-6-hydroxy-2,5,7,8-tetramethyl-N-((R)-piperidin-3-yl)chroman-2-carboxamide hydrochloride]", "values": [
      {"measurement": "KH176 exposure with no significant prolongation of the TpTe interval compared to placebo", "setting": "[1]", "value": "lower than 500 ng/ml"},
      {"measurement": "plasma concentrations at which effects on repolarization seem to start", "setting": "[1]", "value": "500 to 1000", "unit": "ng/mL"},
      {"measurement": "QTcF, largest median baseline increase", "setting": "[1]; 1 h", "value": 46.8, "unit": "ms"},
      {"measurement": "EC50", "setting": "[2]", "value": 182, "unit": "nM"},
      {"measurement": "AUC0-inf ratio (fed/fasted), 90% CI", "setting": "[3]; 100 mg, fed versus fasted", "value": "1.28 (90% Cl 1.12-1.45)"},
      {"measurement": "administered dose excreted in urine as unchanged KH176", "setting": "[3]; SAD", "value": "approximately 12%"},
      {"measurement": "AUC(0-t)", "setting": "[3]; [4]", "value": 75, "unit": "ng·h/mL"},
      {"measurement": "Cmax", "setting": "[3]; [4]", "value": 12.9, "unit": "ng/mL"},
      {"measurement": "Tmax", "setting": "[3]; 10 mg, SAD, KH176 10 mg, fasted, read-out: tmax* (median)", "value": 1.25, "unit": "h"},
      {"measurement": "AUC(0-inf)", "setting": "[3]; [5]", "value": 474, "unit": "ng·h/mL"},
      {"measurement": "AUC(0-t)", "setting": "[3]; [5]", "value": 389, "unit": "ng·h/mL"},
      {"measurement": "Cmax", "setting": "[3]; [5]", "value": 56.2, "unit": "ng/mL"},
      {"measurement": "half-life", "setting": "[3]; 30 mg, SAD, KH176 30 mg, fasted, read-out: t1/2 (Geomean) (converted)", "value": 10.3, "unit": "h"},
      {"measurement": "Tmax", "setting": "[3]; 30 mg, SAD, KH176 30 mg, fasted, read-out: tmax* (median)", "value": 1.25, "unit": "h"},
      {"measurement": "AUC(0-inf)", "setting": "[3]; [6]", "value": 1540, "unit": "ng·h/mL"},
      {"measurement": "AUC(0-t)", "setting": "[3]; [6]", "value": 1310, "unit": "ng·h/mL"},
      {"measurement": "Cmax", "setting": "[3]; [6]", "value": 167, "unit": "ng/mL"},
      {"measurement": "half-life", "setting": "[3]; 100 mg, SAD, KH176 100 mg, fasted, read-out: t1/2 (Geomean) (converted)", "value": 9.1, "unit": "h"},
      {"measurement": "Tmax", "setting": "[3]; 100 mg, SAD, KH176 100 mg, fasted, read-out: tmax* (median)", "value": 1, "unit": "h"},
      {"measurement": "AUC(0-inf)", "setting": "[3]; 100 mg, SAD, KH176 100 mg, fed", "value": 1970, "unit": "ng·h/mL"},
      {"measurement": "AUC(0-t)", "setting": "[3]; 100 mg, SAD, KH176 100 mg, fed", "value": 1650, "unit": "ng·h/mL"},
      {"measurement": "Cmax", "setting": "[3]; 100 mg, SAD, KH176 100 mg, fed", "value": 165, "unit": "ng/mL"},
      {"measurement": "half-life", "setting": "[3]; 100 mg, SAD, KH176 100 mg, fed, read-out: t1/2 (Geomean) (converted)", "value": 9.09, "unit": "h"},
      {"measurement": "Tmax", "setting": "[3]; 100 mg, SAD, KH176 100 mg, fed, read-out: tmax* (median)", "value": 2.5, "unit": "h"},
      {"measurement": "Tmax", "setting": "[3]; 100 mg, fasted condition (100 mg), read-out: median tmax", "value": "~1", "unit": "h"},
      {"measurement": "Tmax", "setting": "[3]; 100 mg, fed condition (100 mg, high calorie/high fat breakfast), read-out: median tmax", "value": 2.5, "unit": "h"},
      {"measurement": "AUC(0-inf)", "setting": "[3]; [7]", "value": 7500, "unit": "ng·h/mL"},
      {"measurement": "AUC(0-t)", "setting": "[3]; [7]", "value": 6320, "unit": "ng·h/mL"},
      {"measurement": "Cmax", "setting": "[3]; [7]", "value": 766, "unit": "ng/mL"},
      {"measurement": "half-life", "setting": "[3]; 300 mg, SAD, KH176 300 mg, fasted, read-out: t1/2 (Geomean) (converted)", "value": 9.64, "unit": "h"},
      {"measurement": "Tmax", "setting": "[3]; 300 mg, SAD, KH176 300 mg, fasted, read-out: tmax* (median)", "value": 0.992, "unit": "h"},
      {"measurement": "AUC(0-inf)", "setting": "[3]; [8]", "value": 25800, "unit": "ng·h/mL"},
      {"measurement": "AUC(0-t)", "setting": "[3]; [8]", "value": 21000, "unit": "ng·h/mL"},
      {"measurement": "Cmax", "setting": "[3]; [8]", "value": 2170, "unit": "ng/mL"},
      {"measurement": "half-life", "setting": "[3]; 800 mg, SAD, KH176 800 mg, fasted, read-out: t1/2 (Geomean) (converted)", "value": 9.8, "unit": "h"},
      {"measurement": "Tmax", "setting": "[3]; 800 mg, SAD, KH176 800 mg, fasted, read-out: tmax* (median)", "value": 1.5, "unit": "h"},
      {"measurement": "AUC(0-inf)", "setting": "[3]; [9]", "value": 79100, "unit": "ng·h/mL"},
      {"measurement": "AUC(0-t)", "setting": "[3]; [9]", "value": 61200, "unit": "ng·h/mL"},
      {"measurement": "Cmax", "setting": "[3]; [9]", "value": 5990, "unit": "ng/mL"},
      {"measurement": "half-life", "setting": "[3]; 2000 mg, SAD, KH176 2000 mg, fasted, read-out: t1/2 (Geomean) (converted)", "value": 11.5, "unit": "h"},
      {"measurement": "Tmax", "setting": "[3]; 2000 mg, SAD, KH176 2000 mg, fasted, read-out: tmax* (median)", "value": 0.75, "unit": "h"},
      {"measurement": "Tmax", "setting": "[3]; SAD, across doses, read-out: median tmax", "value": "0.75 to 1.5", "unit": "h"},
      {"measurement": "half-life", "setting": "[3]; SAD, approximate, across dose groups, read-out: t1/2 (converted)", "value": "~10", "unit": "h"},
      {"measurement": "Tmax", "setting": "[3]; single- and multiple-dose administration, read-out: median tmax", "value": "0.75 to 2", "unit": "h"}
    ]}
  ]
}
